Measurements reported in patent US20170056380A1, “Systems, Methods, Techniques, and Compounds in Research and Treatment of Portal Hypertension and other Conditions” (priority 2014, published 2017).
Entries after “also recorded” stand apart in the source; their conditions may differ.

Assays:
eNOS = target: T1, eNOS (Rattus norvegicus, UniProt Q62600); assay: NOS activity assay (conversion of L-[3H]arginine to L-[3H]citrulline) in sinusoidal endothelial cell lysates; format: cell-based
T1 construct: endogenous in cells; host or cells: primary liver sinusoidal endothelial cells from male Sprague-Dawley rats (normal or bile-duct-ligated)
T1 sequence (Q62600 1-1202): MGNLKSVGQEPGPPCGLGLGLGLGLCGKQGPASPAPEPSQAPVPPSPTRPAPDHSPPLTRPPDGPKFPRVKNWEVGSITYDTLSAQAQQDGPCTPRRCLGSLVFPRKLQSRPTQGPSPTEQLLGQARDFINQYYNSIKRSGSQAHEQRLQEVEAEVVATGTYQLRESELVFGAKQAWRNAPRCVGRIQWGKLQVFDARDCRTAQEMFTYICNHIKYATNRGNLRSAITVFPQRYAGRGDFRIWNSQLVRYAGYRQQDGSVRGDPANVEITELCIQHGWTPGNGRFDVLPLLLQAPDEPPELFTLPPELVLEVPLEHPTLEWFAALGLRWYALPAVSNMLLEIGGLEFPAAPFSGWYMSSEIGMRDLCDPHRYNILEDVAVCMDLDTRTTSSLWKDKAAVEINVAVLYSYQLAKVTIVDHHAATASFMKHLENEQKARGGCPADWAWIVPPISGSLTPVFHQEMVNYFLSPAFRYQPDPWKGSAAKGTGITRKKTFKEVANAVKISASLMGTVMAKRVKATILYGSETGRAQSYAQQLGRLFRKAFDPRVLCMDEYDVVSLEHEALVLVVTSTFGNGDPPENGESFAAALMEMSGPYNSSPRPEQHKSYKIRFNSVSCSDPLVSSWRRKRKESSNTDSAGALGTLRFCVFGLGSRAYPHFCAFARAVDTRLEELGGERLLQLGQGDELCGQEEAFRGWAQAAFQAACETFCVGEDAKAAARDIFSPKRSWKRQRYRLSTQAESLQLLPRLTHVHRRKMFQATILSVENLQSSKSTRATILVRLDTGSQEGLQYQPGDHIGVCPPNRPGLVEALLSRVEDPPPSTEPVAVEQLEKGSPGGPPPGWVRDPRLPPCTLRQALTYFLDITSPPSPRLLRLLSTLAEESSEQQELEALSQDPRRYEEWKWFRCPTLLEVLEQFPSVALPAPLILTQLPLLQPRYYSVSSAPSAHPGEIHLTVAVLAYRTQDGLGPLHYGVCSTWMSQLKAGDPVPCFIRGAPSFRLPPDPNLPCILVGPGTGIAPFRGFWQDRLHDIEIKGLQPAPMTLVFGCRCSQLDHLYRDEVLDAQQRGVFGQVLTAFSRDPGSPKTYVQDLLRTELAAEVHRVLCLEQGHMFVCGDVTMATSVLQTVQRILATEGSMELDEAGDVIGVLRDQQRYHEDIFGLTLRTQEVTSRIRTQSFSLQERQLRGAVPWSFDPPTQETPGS
Protocol: (§1) Cell isolation and culture. Sinusoidal endothelial cells were isolated from male Sprague-Dawley rats (450-500 g) (Harlan, Indianapolis, Ind.). In brief, after in situ perfusion of the liver with 20 mg/100 mg pronase (Roche Molecular Biochemicals, Indianapolis, Ind.), followed by collagenase (Worthington Biochemical, Lakewood, N.J.), dispersed cell suspensions were removed from a layered discontinuous density gradient of 8.2 and 15.6% Accudenz (Accurate Chemical and Scientific, Westbury, N.Y.), further purified by centrifugal elutriation (18 ml/min flow), and were grown in medium containing 20% serum (10% horse/calf). The purity of endothelial cells was documented by their uptake of fluorescently labeled di-l-acetoacetylated low-density lipoprotein as described (21). Only primary sinusoidal endothelial isolates of >95% purity were used for study. Experiments were performed with cells frorrr a minimum three different isolations (for all experiments).
Animal model of liver injury and portal hypedension. Liver injury and portal hypertension were induced by performing bile duct ligation in 450- to 500-gram male retired breeder Sprague-Dawley rats as described in Liu and 20- to 25-gram male BALB/c mice. Briefly, bile duct ligation was performed by surgical isolation and ligation of the common bile duct. This model creates a portal-based fibrogenic response and portal hypertension 10-14 days after surgery (Liu). For study of injured sinusoidal endothelial cells, we used the rat model of bile duct ligation (10-14 days postsurgery); for in vivo study (primarily to conserve the use of active compound), we used the mouse model of bile duct ligation (examining portal pressure 4 wk postsurgery). In sham-operated rats or mice, laparotomy without isolation and section of the bile duct was performed. Studies were approved by the local Institutional Animal Care and Use Committees. Portal pressure measurement. Portal hypertension was induced in male BALB/c mice by bile duct ligation as above. Cicletanine (5 mg·kg^−1·day^−1) or vehicle was given by gavage as a single daily dose for 10 days before portal pressure measurement as described in Liue. In brief, mice were anesthetized, and an intravenous catheter (Becton Dickinson Vascular Access, Sandy, Utah) was introduced in the portal vein and secured with a silk tie. A calibrated low-pressure transducer (Digi-Med, Louisville, Ky.) was connected to the portal vein catheter, and portal pressure was recorded continuously using the Digi-Med Integrator 200 System (Digi-bled).
NOS activity assay. NOS activity from sinusoidal endothelial cell lysates was assessed by measuring the conversion of L-[3H]arginine to L-[3H]citrulline as described (6) per the manufacturer's instructions (Cayman Chemical). In brief, triplicate samples of cell lysates were incubated with a reaction buffer containing 3 pmol of L-[3H]arginine (45 Ci/mmol), 0-50 μM arginine, 1 mM NADPH, 100 nM calmodulin (CaM), 2 mM CaCl2, and 30 μM BH4 in a volume of 50-100 μl at room temperature for 30 min and at 37° C. for an additional 30 min in the presence and absence of 1 mM NG-nitro-L-arginine methyl ester (L-NAME). […] Radiolabeled counts per minute of generated L-citrulline were measured and used to determine L-NAME-inhibitable NOS activity (thus, each experiment included total counts and background counts). […] The reductase activities of sinusoidal endothelial cells with or without cicletanine exposure were determined using the NADPH-dependent cytochrome c assay. […]

Erk1/2 = assay: Erk phosphorylation by immunoblotting in sinusoidal endothelial cells; format: cell-based, rat; settings: 2 h
Protocol: as §1, with “Only primary sinusoidal endothelial isolates of >95% purity were used for study. Experiments were performed with cells frorrr a minimum three different isolations (for all experiments).” left out
Immunoblotting, Immunoblotting was performed by using specified primary antibodies, including anti-eNOS antibody (1:1,000; BD Transduction Laboratories, San Jose, Calif.), anti-phospho-eNOS-Ser^1177 (1:1,000; BD Transduction Laboratories or Cell Signaling Technology), anti-phospho-Akt, anti-Akt (Cell Signaling Technology, Beverly, Mass.), and horseradish peroxidase-conjugated secondary antibody. Specific signals were visualized using enhanced chemiluminescence as per the manufacturer's instructions and were scanned and quantitated with standard software. […]

## Cc1ncc2c(c1O)COC2c1ccc(Cl)cc1 (stereo not drawn) [cicletanine, 3-(4-chlorophenyl)-1,3-dihydro-7-hydroxy-6-methylfuro-(3,4-c) pyridine]
eNOS; cicletanine 100 nM
  increase in eNOS activity, 6 h compared with 2 h: greater at 6 h
eNOS; cicletanine 100 nM, cell lysates at 2 and 6 h
  eNOS activity above basal level at 2 and 6 h after exposure: consistent increases
eNOS; cicletanine 100 nM, normal sinusoidal endothelial cells
  eNOS activity (conversion of arginine to citrulline): robust eNOS activity
eNOS; sinusoidal endothelial cells injured by bile duct ligation, 2 h
  eNOS activity: increase
Erk1/2; 50 or 100 nM, normal sinusoidal endothelial cells
  phosphorylation of Erk: increased in a dose-dependent manner; also recorded: robustly induced
Erk1/2; sinusoidal endothelial cells injured by bile duct ligation
  Erk1/2 phosphorylation: increased
